We go through 16 molecules from patent US10668051B2, “Modulators of calcium release-activated calcium channel” (Rhizen Pharmaceuticals SA, priority 2009, dated 2020).

Structures can show the parent of a compound that is named as a salt.

Sequence of CRAC channels (Q96D31 whole entry): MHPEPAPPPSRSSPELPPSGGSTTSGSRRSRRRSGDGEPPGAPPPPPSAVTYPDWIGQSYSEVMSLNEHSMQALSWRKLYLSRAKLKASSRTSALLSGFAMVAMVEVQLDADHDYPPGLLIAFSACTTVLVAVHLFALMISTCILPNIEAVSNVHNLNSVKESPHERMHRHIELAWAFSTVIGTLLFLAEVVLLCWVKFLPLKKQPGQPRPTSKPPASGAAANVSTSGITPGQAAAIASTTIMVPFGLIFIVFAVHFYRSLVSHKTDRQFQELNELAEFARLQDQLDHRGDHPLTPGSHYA

The test has as its target CRAC channels (Homo sapiens (Human), UniProt Q96D31). Put plainly: In-vitro CRAC channel inhibition assay in Jurkat cells (thapsigargin-induced calcium influx). In kind it is cell-based. The procedure: 1A. In-Vitro CRAC Channel Inhibition Assay in Jurkat Cells
Plate is incubated at 37° C./5% CO2 for 30 min followed by further 15 min incubation at room temperature. Test compounds (DMSO stocks diluted in Ca^2+ and Mg^2+ free Hanks buffer) at desired concentrations were added to the wells and incubated for 15 min. Thapsigargin (1 μM final concentration) was added to the wells and incubated for 15 min to inhibit the Sarco-endoplasmic reticulum Ca^2+ ATPase pump thereby depleting endoplasmic calcium and raising cytosolic calcium concentrations. Store-operated calcium entry was initiated by adding extracellular Ca^2+ to a final concentration of 1.8 mM. Fluorescence was monitored over 5 min on a plate reader (BMG Labtech., Germany) with excitation at 485 nm and; an emission wavelength at 520 nm. Data were analyzed using GraphPad Prism. IC50 for each compound was determined based on the percent inhibition of thapsigargin-induced calcium influx into cells.
For `Cc1nc(C)c(C(=O)Nc2ccc(-n3nc(C4CC4)cc3C3CC3)cc2)s1` [Example 3, N-[4-(3,5-dicyclopropyl-1H-pyrazol-1-yl)phenyl]-2,4-dimethylthiazole-5-carboxamide], the inhibition at 1 µM turned out to be 72.2%.
With `Cc1oncc1C(=O)Nc1ccc(-n2nc(C3CC3)cc2C2CC2)cc1` [Example 4, N-[4-(3,5-dicyclopropyl-1H-pyrazol-1-yl)phenyl]-5-methylisoxazole-4-carboxamide] the figure was 100%.
Consider `Cc1noc(C)c1C(=O)Nc1ccc(-n2nc(C3CC3)cc2C2CC2)cc1` [Example 5, N-[4-(3,5-dicyclopropyl-1H-pyrazol-1-yl)phenyl]-3,5-dimethylisoxazole-4-carboxamide], for which the inhibition at 1 µM amounted to 48.5%.
Regarding `Cc1ccccc1C(=O)Nc1ccc(-n2nc(C3CC3)cc2C2CC2)cc1` [Example 7, N-[4-(3,5-dicyclopropyl-1H-pyrazol-1-yl)phenyl]-2-methylbenzamide], the inhibition at 1 µM was determined as 99%.
With `O=C(Nc1ccc(-n2nc(C3CC3)cc2C2CC2)cc1)c1c(F)cccc1F` [Example 8, N-[4-(3,5-dicyclopropyl-1H-pyrazol-1-yl)phenyl]-2,6-difluorobenzamide] the figure was 100%.
The figure for `CS(=O)(=O)c1cccc(C(=O)Nc2ccc(-n3nc(C4CC4)cc3C3CC3)cc2)c1` [Example 10] is 49.5%; for `CS(=O)(=O)c1ccc(C(=O)Nc2ccc(-n3nc(C4CC4)cc3C3CC3)cc2)cc1` [Example 11, N-[4-(3,5-dicyclopropyl-1H-pyrazol-1-yl)phenyl]-4-(methylsulfonyl)benzamide] it is 71.9%.
The figure for `CSc1ccc(Cl)c(C(=O)Nc2ccc(-n3nc(C4CC4)cc3C3CC3)cc2)c1` [Example 12, 2-chloro-N-[4-(3,5-dicyclopropyl-1H-pyrazol-1-yl)phenyl]-5-(methylthio)benzamide] is 90.8%; for `CS(=O)(=O)c1ccc(Cl)c(C(=O)Nc2ccc(-n3nc(C4CC4)cc3C3CC3)cc2)c1` [Example 13, 2-chloro-N-[4-(3,5-dicyclopropyl-1H-pyrazol-1-yl)phenyl)-5-(methylsulfonyl)benzamide] it is 37.2%.
As to `O=C(Nc1ccc(-n2nc(C3CC3)cc2C2CC2)cc1)c1cccnc1` [Example 14, N-[4-(3,5-dicyclopropyl-1H-pyrazol-1-yl)phenyl]nicotinamide hydrochloride], the inhibition at 1 µM is 25.9%.
The figure for `O=C(Nc1ccc(-n2nc(C3CC3)cc2C2CC2)cc1)c1ccncc1` [Example 15, N-[4-(3,5-dicyclopropyl-1H-pyrazol-1-yl)phenyl]isonicotinamide hydrochloride] is 94%; for `O=C(Nc1ccc(-n2nc(C3CC3)cc2C2CC2)cc1)c1ccncc1F` [Example 16, N-[4-(3,5-dicyclopropyl-1H-pyrazole-1-yl)phenyl]-3-fluoroisonicotinamide] it is 92.8%; for `O=C(Nc1ccc(-n2nc(C3CC3)cc2C2CC2)cc1)c1c(Cl)cncc1Cl` [Example 17, 3,5-dichloro-N-(4-(3,5-dicyclopropyl-1H-pyrazol-1-yl)phenyl)isonicotinamide] it is 87.5%.
The figure for `Cc1ncncc1C(=O)Nc1ccc(-n2nc(C3CC3)cc2C2CC2)cc1` [Example 18, N-[4-(3,5-dicyclopropyl-1H-pyrazol-1-yl)phenyl]-4-methylpyrimidine-5-carboxamide] is 82.8%; for `O=C(Cc1ccccc1)Nc1ccc(-n2nc(C3CC3)cc2C2CC2)cc1` [Example 19, N-[4-(3,5-dicyclopropyl-1H-pyrazol-1-yl)phenyl]-2-phenylacetamide] it is 73.5%; for `O=C(Cc1ccc(F)cc1)Nc1ccc(-n2nc(C3CC3)cc2C2CC2)cc1` [Example 20, N-[4-(3,5-dicyclopropyl-1H-pyrazol-1-yl)phenyl]-2-(4-fluorophenyl)acetamide] it is 70.2%.
